Read-outs that look alike come from different tables or passages of the source.
Legend:
ChoKα protein = molecular target: T1, ChoKα protein (Homo sapiens, UniProt P35790); test: Binding affinity by surface plasmon resonance (SensiQ Pioneer, FastStep)
T1 construct: made in house
Description: KD may be measured using surface plasmon resonance (BIAcore®) technology, see, e.g., Panayotou et al, Mol. Cell. […] ChoKα protein was immobilized by standard amine coupling methods on a COOH5 sensor chip installed in a SensiQ Pioneer system. Sensograms were measured using the FastStep™ screen method with an upper concentration of 500 nM. Kinetics and affinity were obtained from fits using a 1:1 binding model.

[1] = molecular target: T2, truncated form of human Choline kinase α1 that includes residues 75-457 (Homo sapiens, UniProt P35790); test: Kinase Assay, coupled (ATP regeneration) LDH/PK assay, NADH absorbance; format: biochemical
T2 construct: made in house
T2 sequence (P35790 75-457): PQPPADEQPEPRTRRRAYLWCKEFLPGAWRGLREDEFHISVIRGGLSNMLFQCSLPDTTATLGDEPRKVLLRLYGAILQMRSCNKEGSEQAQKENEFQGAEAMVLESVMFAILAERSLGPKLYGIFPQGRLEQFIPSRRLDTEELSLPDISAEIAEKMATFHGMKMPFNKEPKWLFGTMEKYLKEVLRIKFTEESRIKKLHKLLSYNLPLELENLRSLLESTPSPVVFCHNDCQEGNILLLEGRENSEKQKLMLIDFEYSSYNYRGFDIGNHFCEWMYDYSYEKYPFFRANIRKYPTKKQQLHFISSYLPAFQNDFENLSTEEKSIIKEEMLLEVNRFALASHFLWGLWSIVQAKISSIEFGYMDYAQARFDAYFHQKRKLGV
Description: Absorbance of NADH (340 nm) was measured over 30 min using a SpectraMax M5 (Molecular Devices). Initial reaction velocity (ΔA340/Δt) was calculated and plotted as a function of inhibitor concentration in a 2-fold dilution series. IC50 values were obtained by fitting the relative velocities to a dose-response model.

cancer cell lines = test: Cellular Growth Inhibition Assay (CyQuant Cell Proliferation Assay Kit); format: cell-based
Description: Cellular Growth Inhibition AssayVehicle or compound treated cells were assessed for cell growth after 72 hours of treatment using the CyQuant® Cell Proliferation Assay Kit (Life Technologies, Grand Island, N.Y.). […] Data are shown as mean (±SD) from ≧2 separate experiments.

[2] = SPR, 1:1 binding model, upper concentration 500 nM, read-out: Kd
[3] = Examples not designated with an asterisk, footnote prints version 1 of the Kinase Assay, read-out: IC50
[4] = 72 hours of treatment, cell line not named, read-out: GI50
[5] = Examples designated with an asterisk (*): version 1 of the Kinase Assay, 200 nM enzyme, read-out: IC50

T1 sequence (P35790 75-457): as above

Structure (SMILES): CC(=O)NNC(=O)CCc1ccc(-c2ccc(CN3CCCN(C)CC3)cc2C#N)cc1 [Example 83, N′-acetyl-3-(2′-cyano-4′-((4-methyl-1,4-diazepan-1-yl)methyl)-[1,1′-biphenyl]-4-yl)propanehydrazide]
- Kd (ChoKα protein; [2]): < 50 nM
- IC50 [1, 3]: < 100 nM
- GI50 (cancer cell lines; [4]): > 20000 nM

Structure (SMILES): CN1CCCN(Cc2ccc(-c3cc(F)c(CN4CCCN(C)CC4)c(F)c3)cc2)CC1 [Example 40, 4,4′-((3,5-difluoro-[1,1′-biphenyl]-4,4′-diyl)bis(methylene))bis(1-methyl-1,4-diazepane)]
- Kd (ChoKα protein): < 60000 nM
- IC50 [1]: < 200 nM
- GI50 (cancer cell lines; 72 h): < 20000 nM

Structure (SMILES): CN1CCCN(Cc2ccc(-c3ccc(C4(NS(C)(=O)=O)CC4)cc3)c(C#N)c2)CC1 [Example 82, N-(1-(2′-cyano-4′-((4-methyl-1,4-diazepan-1-yl)methyl)-[1,1′-biphenyl]-4-yl)cyclopropyl)methanesulfonamide]
- Kd (ChoKα protein; [2]): < 50 nM
- IC50 [1, 3]: < 100 nM
- GI50 (cancer cell lines; [4]): < 20000 nM

Structure (SMILES): CN1CCCN(Cc2ccc(-c3ccc(C(=O)NC4CC4)cc3)c(C#N)c2)CC1 [Example 32, 2′-cyano-N-cyclopropyl-4′-((4-methyl-1,4-diazepan-1-yl)methyl)-[1,1′-biphenyl]-4-carboxamide]
- Kd (ChoKα protein; [2]): < 60000 nM
- IC50 [1, 3]: < 200 nM
- GI50 (cancer cell lines; [4]): < 20000 nM

Structure (SMILES): CN1CCCN(Cc2ccc(-c3ccc4cn[nH]c4c3)c(C#N)c2)CC1 [Example 89, 2-(1H-indazol-6-yl)-5-((4-methyl-1,4-diazepan-1-yl)methyl)benzonitrile]
- Kd (ChoKα protein; [2]): < 50 nM
- IC50 [1, 3]: < 100 nM
- GI50 (cancer cell lines; [4]): > 20000 nM

Structure (SMILES): CN1CCCN(Cc2ccc(-c3ccc(NS(C)(=O)=O)cc3)c(C#N)c2)CC1 [Example 104, N-(2′-cyano-4′-((4-methyl-1,4-diazepan-1-yl)methyl)-[1,1′-biphenyl]-4-yl)methanesulfonamide]
- Kd (ChoKα protein; [2]): < 50 nM
- IC50 [1, 3]: < 100 nM
- GI50 (cancer cell lines; [4]): > 20000 nM

Structure (SMILES): CN1CCCN(Cc2ccc(-c3ccc4[nH]ncc4c3)c(C#N)c2)CC1 [Example 92, 2-(1H-indazol-5-yl)-5-((4-methyl-1,4-diazepan-1-yl)methyl)benzonitrile]
- Kd (ChoKα protein; [2]): < 50 nM
- IC50 [1, 3]: < 100 nM
- GI50 (cancer cell lines; [4]): > 20000 nM

Structure (SMILES): CN1CCCN(Cc2ccc(-c3ccc(CN4CCCN(C)CC4)c(F)c3)cc2)CC1 [Example 42, 4,4′-((3-fluoro-[1,1′-biphenyl]-4,4′-diyl)bis(methylene))bis(1-methyl-1,4-diazepane)]
- Kd (ChoKα protein; [2]): < 200 nM
- IC50 [1, 3]: < 200 nM
- GI50 (cancer cell lines; [4]): < 5000 nM

Structure (SMILES): CN1CCCN(Cc2ccc(-c3ccc(S(N)(=O)=O)cc3)c(C#N)c2)CC1 [Example 87, 2′-cyano-4′-((4-methyl-1,4-diazepan-1-yl)methyl)-[1,1′-biphenyl]-4-sulfonamide]
- Kd (ChoKα protein; [2]): < 100 nM
- IC50 [1, 3]: < 100 nM
- GI50 (cancer cell lines; [4]): > 20000 nM

Structure (SMILES): CN1CCCN(Cc2ccc(-c3ccc(CN4CCCN(C)CC4)cc3F)cc2)CC1 [Example 44, 4,4′-((2-fluoro-[1,1′-biphenyl]-4,4′-diyl)bis(methylene))bis(1-methyl-1,4-diazepane)]
- Kd (ChoKα protein): < 200 nM
- IC50 [1]: < 200 nM
- GI50 (cancer cell lines; 72 h): < 5000 nM

Structure (SMILES): CN1CCCN(Cc2ccc(-c3ccc(C(=O)N4CCCN(C)CC4)cc3)c(C#N)c2)CC1 [Example 33, 4-((4-methyl-1,4-diazepan-1-yl)methyl)-4′-(4-methyl-1,4-diazepane-1-carbonyl)-[1,1′-biphenyl]-2-carbonitrile]
- Kd (ChoKα protein; [2]): < 200 nM
- IC50 [1, 3]: < 200 nM
- GI50 (cancer cell lines; [4]): > 20000 nM

Structure (SMILES): CNS(=O)(=O)c1ccc(-c2ccc(CN3CCCN(C)CC3)cc2C#N)cc1 [Example 86, 2′-cyano-N-methyl-4′-((4-methyl-1,4-diazepan-1-yl)methyl)-[1,1′-biphenyl]-4-sulfonamide]
- Kd (ChoKα protein; [2]): < 50 nM
- IC50 [1, 3]: < 100 nM
- GI50 (cancer cell lines; [4]): < 5000 nM

Structure (SMILES): COc1ccc(-c2cc(C(=O)N3CCCN(C)CC3)ccc2-c2ccc(CN3CCCN(C)CC3)cc2C#N)cc1 [Example 66, 4″-methoxy-4-((4-methyl-1,4-diazepan-1-yl)methyl)-4′-(4-methyl-1,4-diazepane-1-carbonyl)-[1,1′:2′,1″-terphenyl]-2-carbonitrile]
- Kd (ChoKα protein; [2]): < 50 nM
- IC50 [1, 3]: < 100 nM
- GI50 (cancer cell lines; [4]): < 20000 nM

Structure (SMILES): CN1CCCN(Cc2ccc(-c3ccc(S(C)(=O)=O)cc3)c(C#N)c2)CC1 [Example 94, 4-((4-methyl-1,4-diazepan-1-yl)methyl)-4′-(methylsulfonyl)-[1,1′-biphenyl]-2-carbonitrile]
- Kd (ChoKα protein; [2]): < 200 nM
- IC50 [1, 3]: < 200 nM

Structure (SMILES): Cc1cc(C(=O)N2CCCN(C)CC2)ccc1-c1ccc(CN2CCCN(C)CC2)cc1 [Example 50, (4-methyl-1,4-diazepan-1-yl)(2-methyl-4′-((4-methyl-1,4-diazepan-1-yl)methyl)-[1,1′-biphenyl]-4-yl)methanone]
- Kd (ChoKα protein; [2]): < 60000 nM
- IC50 [1, 3]: < 200 nM
- GI50 (cancer cell lines; [4]): < 5000 nM

Structure (SMILES): CN1CCCN(Cc2ccc(-c3ccc(CN4CCCN(C)CC4)c(Cl)c3)cc2)CC1 [Example 43, 4,4′-((3-chloro-[1,1′-biphenyl]-4,4′-diyl)bis(methylene))bis(1-methyl-1,4-diazepane)]
- Kd (ChoKα protein): < 200 nM
- IC50 [1]: < 200 nM
- GI50 (cancer cell lines; 72 h): < 5000 nM

Structure (SMILES): CN1CCCN(Cc2ccc(-c3ccc(CNS(C)(=O)=O)cc3)c(C#N)c2)CC1 [Example 48, N-((2′-cyano-4′-((4-methyl-1,4-diazepan-1-yl)methyl)-[1,1′-biphenyl]-4-yl)methyl)methanesulfonamide]
- Kd (ChoKα protein; [2]): < 50 nM
- IC50 [1, 3]: < 100 nM

Structure (SMILES): CN1CCCN(Cc2ccc(-c3ccc(C(=O)NN)cc3)c(C#N)c2)CC1 [Example 91, 2′-cyano-4′-((4-methyl-1,4-diazepan-1-yl)methyl)-[1,1′-biphenyl]-4-carbohydrazide]
- Kd (ChoKα protein; [2]): < 200 nM
- IC50 [1, 3]: < 200 nM

Structure (SMILES): CN1CCCN(Cc2ccc(-c3ccc(C(=O)N4CCCN(C)CC4)cc3)cc2)CC1 [Example 37, (4-methyl-1,4-diazepan-1-yl)(4′-((4-methyl-1,4-diazepan-1-yl)methyl)-[1,1′-biphenyl]-4-yl)methanone]
- Kd (ChoKα protein): < 200 nM
- IC50 [1]: < 200 nM
- GI50 (cancer cell lines; 72 h): > 20000 nM

Structure (SMILES): CCOc1ccc(-c2cc(C(=O)N3CCCN(C)CC3)ccc2-c2ccc(CN3CCCN(C)CC3)cc2C#N)cc1 [Example 79, 4″-ethoxy-4-((4-methyl-1,4-diazepan-1-yl)methyl)-4′-(4-methyl-1,4-diazepane-1-carbonyl)-[1,1′1:2′,1″-terphenyl]-2-carbonitrile]
- Kd (ChoKα protein; [2]): < 50 nM
- IC50 [1, 3]: < 100 nM

Structure (SMILES): CN1CCCN(Cc2ccc(-c3ccncc3)cc2)CC1 [Example 140, 1-methyl-4-(4-(pyridin-4-yl)benzyl)-1,4-diazepane]
- Kd (ChoKα protein; [2]): < 60000 nM
- IC50 [1, 5]: < 200 nM

Structure (SMILES): CN1CCCN(Cc2ccc(-c3ccc(CN4CCC(O)CC4)cc3)c(C#N)c2)CC1 [Example 4, 4′-((4-hydroxypiperidin-1-yl)methyl)-4-((4-methyl-1,4-diazepan-1-yl)methyl)-[1,1′-biphenyl]-2-carbonitrile]
- Kd (ChoKα protein; [2]): < 50 nM
- IC50 [1, 3]: < 100 nM
- GI50 (cancer cell lines; [4]): < 20000 nM

Structure (SMILES): CN1CCCN(Cc2ccc(-c3ccc(C(=O)N4CCCN(C)CC4)cc3-c3cn[nH]c3)c(C#N)c2)CC1 [Example 71, 4-((4-methyl-1,4-diazepan-1-yl)methyl)-4′-(4-methyl-1,4-diazepane-1-carbonyl)-2′-(1H-pyrazol-4-yl)-[1,1′-biphenyl]-2-carbonitrile]
- Kd (ChoKα protein; [2]): < 100 nM
- IC50 [1, 3]: < 100 nM

Structure (SMILES): CN1CCCN(Cc2ccc(-c3ccc(C(F)(F)F)cc3)cc2)CC1 [Example 137, 1-methyl-4-((4′-(trifluoromethyl)-[1,1′-biphenyl]-4-yl)methyl)-1,4-diazepane]
- Kd (ChoKα protein): < 60000 nM
- IC50 [1]: < 200 nM

Structure (SMILES): CN1CCCN(Cc2ccc(-c3ccc(CN(C)CCO)cc3)c(C#N)c2)CC1 [Example 8, 4′-(((2-hydroxyethyl)(methyl)amino)methyl)-4-((4-methyl-1,4-diazepan-1-yl)methyl)-[1,1′-biphenyl]-2-carbonitrile]
- Kd (ChoKα protein; [2]): < 50 nM
- IC50 [1, 3]: < 100 nM

Structure (SMILES): CN1CCCN(Cc2ccc(-c3ccc(S(=O)(=O)N4CCOCC4)cc3)c(C#N)c2)CC1 [Example 88, 4-((4-methyl-1,4-diazepan-1-yl)methyl)-4′-(morpholinosulfonyl)-[1,1′-biphenyl]-2-carbonitrile]
- Kd (ChoKα protein; [2]): < 200 nM
- IC50 [1, 3]: < 200 nM

Structure (SMILES): CN1CCCN(Cc2ccc(-c3ccccc3)c(F)c2)CC1 [Example 134, 1-((2-fluoro-[1,1′-biphenyl]-4-yl)methyl)-4-methyl-1,4-diazepane]
- Kd (ChoKα protein; [2]): < 60000 nM
- IC50 [1, 5]: < 200 nM

Structure (SMILES): CCN(CC)C(=O)c1ccc(-c2ccc(CN3CCCN(C)CC3)cc2C#N)cc1 [Example 27, 2′-cyano-N,N-diethyl-4′-((4-methyl-1,4-diazepan-1-yl)methyl)-[1,1′-biphenyl]-4-carboxamide]
- Kd (ChoKα protein; [2]): < 200 nM
- IC50 [1, 3]: < 200 nM

Structure (SMILES): COc1ccc(-c2ccc(CN3CCCN(C)CC3)cc2)cc1 [Example 128, 1-((4′-methoxy-[1,1′-biphenyl]-4-yl)methyl)-4-methyl-1,4-diazepane]
- Kd (ChoKα protein): < 60000 nM
- IC50 [1]: < 200 nM

Structure (SMILES): CN1CCCN(Cc2ccc(-c3ccc(N4CCN(C)CC4)cc3)cc2)CC1 [Example 138, 1-methyl-4-((4′-(4-methylpiperazin-1-yl)-[1,1′-biphenyl]-411)methyl)-1,4-diazepane]
- Kd (ChoKα protein): < 60000 nM
- IC50 [1]: < 200 nM

Structure (SMILES): CN1CCCN(Cc2ccc(-c3ccc(CN)cc3)c(C#N)c2)CC1 [Example 16, 4′-(aminomethyl)-4-((4-methyl-1,4-diazepan-1-yl)methyl)-[1,1′-biphenyl]-2-carbonitrile]
- Kd (ChoKα protein; [2]): < 200 nM
- IC50 [1, 3]: < 200 nM
